In patent publication US12252524B2, “GIP/GLP1 co-agonist compounds” (Eli Lilly and Company, priority 2018, dated 2025):
Like-named read-outs stand apart in the source and are kept apart here. Numbered stars: 1 amine (or outer) side, 2 acyl side, 3 side chain; on linkers, the order of the positions; unused ones are H or OH. Square brackets hold non-standard residues; d marks the D form. Side chains are listed from the residue outwards. Peptide text beside a SMILES is read from it. * marks the point of attachment. C20 diacid = O=C(O)CCCCCCCCCCCCCCCCCCC(=O)*; C18 diacid = O=C(O)CCCCCCCCCCCCCCCCC(=O)*; αMePhe(2-F) = C[C@](N)(Cc1ccccc1F)C(=O)O; γGlu = O=C(O)[C@H](CCC(=O)[*:2])N[*:1]; αMeF = C[C@](N)(Cc1ccccc1)C(=O)O; αMeL = CC(C)C[C@](C)(N)C(=O)O; AEEA = NCCOCCOCC(=O)O; Aib = CC(C)(N)C(=O)O

Key:
human Gcg receptor = target: T1, human Gcg receptor (Homo sapiens, UniProt P47871); test: [125I]-Glucagon binding (SPA), human Gcg receptor
T1 construct: expressed in transfected cells; crude membranes
Outline: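 Scintillation counts are taken after membranes and WGA beads incubate and settle for 12 hours at room temperature. Buffer is 25 mM HEPES, pH 7.4, with CaCl2, MgCl2, bacitracin and Tween-20. Ki values, from four-parameter IC50 fits, are geometric means over independent days.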

human GIP receptor = target: T2, human GIP receptor (Homo sapiens, UniProt P48546); test: [125I]-GIP binding (SPA), human GIP receptor
T2 construct: expressed in transfected cells; crude membranes
T2 sequence (P48546 22-466): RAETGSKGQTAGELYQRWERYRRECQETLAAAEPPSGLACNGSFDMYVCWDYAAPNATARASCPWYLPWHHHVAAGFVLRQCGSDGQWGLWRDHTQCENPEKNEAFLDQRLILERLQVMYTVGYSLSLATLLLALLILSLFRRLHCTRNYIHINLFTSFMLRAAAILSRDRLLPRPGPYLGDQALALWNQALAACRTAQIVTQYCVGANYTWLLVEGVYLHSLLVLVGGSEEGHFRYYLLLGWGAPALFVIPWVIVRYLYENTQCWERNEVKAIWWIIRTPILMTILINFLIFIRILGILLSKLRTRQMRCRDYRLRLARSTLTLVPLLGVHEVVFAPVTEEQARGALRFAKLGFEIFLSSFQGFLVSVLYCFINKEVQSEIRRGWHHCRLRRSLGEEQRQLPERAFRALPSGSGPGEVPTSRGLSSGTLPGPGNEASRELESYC

[1] = target: human GLP-1 receptor (GLP-1R) (Homo sapiens, UniProt P43220); test: cAMP pharmacological functional assay in presence of casein, hGLP-1R; assay type: cell-based
[2] = target: T3, gastric inhibitory peptide receptor (GIPR) (Homo sapiens, UniProt P48546); test: cAMP pharmacological functional assay in presence of casein, hGIPR; assay type: cell-based
T3 sequence (P48546 22-466): T2 sequence (P48546 22-466)

[3] = Proteolytic stability assay in 90% pig small intestinal fluid (pSIF); assay type: in vitro ADME; details: 90% pSIF, 37° C.
Experimental: Peptides are diluted to a concentration of 0.4 mg/mL in 90% pig small intestinal fluid. After the mixing, 20 μL are immediately removed (time 0 for the time point of pre-incubation). The mixture is then incubated at 37° C. at 150 rpm. […] The sample is centrifuged at 20,000×g for 20 min at 4° C.
The data analysis is performed using MassLynx.

human GLP-1R [4] = target: T4, human GLP-1R (Homo sapiens, UniProt P43220); test: [125I]-GLP-1 binding (SPA), human GLP-1 receptor; parameters: expressed in transfected cells; crude membranes
Outline: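 Ki values are geometric means with SEM over independent replicates on different days, derived from IC50s fitted by four-parameter nonlinear regression. The assay used crude cell membranes in HEPES buffer, pH 7.4, containing CaCl2, MgCl2, bacitracin and TWEEN-20.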

human GLP-1R [5] = target: T4, human GLP-1R; test: GLP-1R HEK293 cell membrane [35S]GTPγS binding assay; assay type: biochemical; parameters: expressed in transfected cells; host or cells: HEK293 cells expressing human GLP-1R; membranes
Outline: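 Membranes from HEK293 cells expressing the receptor incubated with peptide and […] [35S]GTPγS in HEPES pH 7.4 buffer with NaCl, MgCl2, saponin and BSA, 30 min at room temperature. Gαs-bound label captured by anti-Gαs antibody/SPA beads and counted; EC50 from four-parameter logistic fit.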

[6] = Body weight in diet-induced obese C57/B16 mice, 14-day treatment; assay type: in vivo, C57/B16 diet-induced obese (DIO) male mice; details: s.c., QD, DIO mice
Experimental: C57/B16 diet-induced obese (DIO) male mice (Taconic, Germantown, NY) weighing 41-50 g are used. Animals are individually housed in a temperature-controlled (24° C.) facility with a 12 hour light/dark photoperiod (lights off at 10:00 AM and lights on at 10:00 PM), with free access to food and water. After 2 week acclimatization to the facility, mice are randomized to treatment groups (n=6/group) based on body weight so each group has similar starting mean body weight.
Mice are treated with either vehicle (40 mM Tris-HCl at pH 8.0) or several peptides between the dose ranges of 0.03 nmol/kg to 10 nmol/kg. Treatments are subcutaneously administered to ad libitum fed DIO mice 30-90 minutes prior to the onset of the dark cycle daily (QD) for 14 days. During the course of the study, body weight and food intake are monitored daily. […]
[formula] “0” dose group represents the vehicle-treated mice during each study. All data are expressed as mean±SEM of 5-6 mice per group. Statistical analyses are assessed by one-way ANOVA followed by Dunnett's multiple comparison test to compare treatment groups to ‘0’, dose (vehicle). *Significant differences are identified at p<0.05. Body weight change after treatment with Example compounds after 15 days. “Δ from vehicle” refers to difference between body weight at day 15 between test and vehicle groups. “% n change” refers to percent decrease in body weight between days 1 and 15 in test groups. Percent decrease in body weight for animals receiving vehicle is recorded, and is less than about 100 in each study.

[7] = read-out: hGLcgR Ki, nM (SEM, n)
[8] = read-out: hGIPR Ki, nM (SEM, n)
[9] = HEK293 cells expressing hGLP-1R, 0.1% Casein, geometric mean, read-out: hGLP1R cAMP Rel EC50 nM (SEM, n)
[10] = HEK293 cells expressing hGIPR, 0.1% Casein, geometric mean, read-out: hGIPR cAMP Rel EC50 nM (SEM, n)
[11] = read-out: hGLP1R Ki, (nM) (SEM, n)

T4 sequence (P43220 24-463): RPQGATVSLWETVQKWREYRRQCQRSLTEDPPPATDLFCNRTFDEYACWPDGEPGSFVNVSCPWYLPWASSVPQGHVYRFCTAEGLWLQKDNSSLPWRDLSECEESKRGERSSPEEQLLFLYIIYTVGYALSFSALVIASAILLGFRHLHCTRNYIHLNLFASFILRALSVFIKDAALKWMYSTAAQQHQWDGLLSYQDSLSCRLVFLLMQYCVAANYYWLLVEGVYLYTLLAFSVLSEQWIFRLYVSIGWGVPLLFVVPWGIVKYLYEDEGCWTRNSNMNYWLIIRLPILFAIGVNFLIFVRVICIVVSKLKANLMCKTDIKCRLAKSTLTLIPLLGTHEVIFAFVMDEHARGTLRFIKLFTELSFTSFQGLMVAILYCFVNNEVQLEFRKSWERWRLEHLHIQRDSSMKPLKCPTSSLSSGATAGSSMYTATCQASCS
Sequence of human GLP-1 receptor (GLP-1R) (P43220 24-463): as above
T1 sequence (P47871 26-477): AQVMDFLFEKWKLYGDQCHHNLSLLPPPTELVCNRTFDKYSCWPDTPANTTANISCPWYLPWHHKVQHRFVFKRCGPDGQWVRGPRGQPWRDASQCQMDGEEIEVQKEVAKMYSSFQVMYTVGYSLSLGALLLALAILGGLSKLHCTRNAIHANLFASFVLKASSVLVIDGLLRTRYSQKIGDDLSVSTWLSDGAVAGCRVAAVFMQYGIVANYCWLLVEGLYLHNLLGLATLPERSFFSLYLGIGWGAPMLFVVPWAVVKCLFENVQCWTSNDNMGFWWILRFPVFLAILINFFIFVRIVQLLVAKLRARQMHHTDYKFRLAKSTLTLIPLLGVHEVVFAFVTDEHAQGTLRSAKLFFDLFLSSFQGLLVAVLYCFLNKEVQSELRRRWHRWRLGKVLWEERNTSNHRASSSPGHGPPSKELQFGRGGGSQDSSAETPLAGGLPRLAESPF

Ki (human Gcg receptor; [7]) [nM]	Ki (human GIP receptor; [8]) [nM]	EC50 [1, 9] [nM]	EC50 [2, 10] [nM]	Ki (human GLP-1R [4]; [11]) [nM]	Structure (SMILES)	percent body weight after 14-day of treatment ([6]; dose 0.03 nmol/kg) [%]	percent body weight after 14-day of treatment ([6]; dose 0.1 nmol/kg) [%]	percent body weight after 14-day of treatment ([6]; dose 0.3 nmol/kg) [%]	percent body weight after 14-day of treatment ([6]; dose 1 nmol/kg) [%]	percent body weight after 14-day of treatment ([6]; dose 3 nmol/kg) [%]	percent body weight after 14-day of treatment ([6]; dose 10 nmol/kg) [%]	other results
–	–	–	–	–	CC[C@H](C)[C@H](NC(=O)[C@H](CC(C)C)NC(=O)[C@](C)(Cc1ccc(O)cc1)NC(=O)[C@@H](CCC(=O)O)NC(=O)[C@@H](NC(=O)[C@H](Cc1ccccc1)NC(=O)[C@H](CCC(=O)O)NC(=O)C(C)(C)NC(=O)[C@H](CCC(N)=O)NC(=O)[C@H](C)NC(=O)[C@H](CCCCNC(=O)COCCOCCNC(=O)COCCOCCNC(=O)CC[C@H](NC(=O)CCCCCCCCCCCCCCCCC(=O)O)C(=O)O)NC(=O)[C@H](CCCN)NC(=O)[C@H](CC(=O)O)NC(=O)[C@H](CC(C)C)NC(=O)[C@](C)(CC(C)C)NC(=O)[C@@H](NC(=O)[C@H](CO)NC(=O)[C@@H](NC(=O)[C@H](CC(=O)O)NC(=O)[C@H](CO)NC(=O)[C@@H](NC(=O)[C@](C)(Cc1ccccc1F)NC(=O)[C@@H](NC(=O)CNC(=O)[C@H](CCC(=O)O)NC(=O)C(C)(C)NC(=O)[C@@H](N)Cc1ccc(O)cc1)[C@@H](C)O)[C@@H](C)O)C(C)C)[C@@H](C)CC)[C@@H](C)CC)C(=O)N[C@@H](CCC(=O)O)C(=O)NCC(=O)NCC(=O)N1CCC[C@H]1C(=O)N[C@@H](CO)C(=O)N[C@@H](CO)C(=O)NCC(=O)N[C@@H](C)C(=O)N1CCC[C@H]1C(=O)N1CCC[C@H]1C(=O)N1CCC[C@H]1C(=O)N[C@@H](CO)C(N)=O [Example 5]	–	–	–	–	–	–	Ki (human Gcg receptor): 519 nM; Ki (human GIP receptor): 0.0611 nM; EC50 [1]: 0.0164 nM; EC50 [2]: 0.0309 nM; percentage of peptide not cleaved using pSIF ([3]; 0 min): 100%; remaining at 0.5 h, 0.4 mg/mL ([3]; pig, 90% pig small intestinal fluid (pSIF), 30 min, read-out: percentage of peptide not cleaved using pSIF): 76.9%; remaining at 0.75 h, 0.4 mg/mL ([3]; pig, 90% pig small intestinal fluid (pSIF), 45 min, read-out: percentage of peptide not cleaved using pSIF): 56.8%; remaining at 1 h, 0.4 mg/mL ([3]; pig, 90% pig small intestinal fluid (pSIF), 60 min, read-out: percentage of peptide not cleaved using pSIF): 60.7%; Ki (human GLP-1R [4]): 0.902 nM; EC50 (human GLP-1R [5]): 0.196 nM
123	0.0565	0.0248	0.0323	3.91	CC[C@H](C)[C@H](NC(=O)[C@H](CC(C)C)NC(=O)[C@H](Cc1ccc(O)cc1)NC(=O)[C@H](CCC(=O)O)NC(=O)[C@@H](NC(=O)[C@H](Cc1ccccc1)NC(=O)[C@H](CCC(=O)O)NC(=O)C(C)(C)NC(=O)[C@H](CCC(N)=O)NC(=O)[C@H](C)NC(=O)[C@H](CCCCNC(=O)COCCOCCNC(=O)COCCOCCNC(=O)CC[C@H](NC(=O)CCCCCCCCCCCCCCCCC(=O)O)C(=O)O)NC(=O)[C@H](CCC(=O)O)NC(=O)[C@H](CC(=O)O)NC(=O)[C@H](CC(C)C)NC(=O)[C@](C)(CC(C)C)NC(=O)[C@@H](NC(=O)[C@H](CO)NC(=O)[C@H](Cc1ccc(O)cc1)NC(=O)[C@H](CC(=O)O)NC(=O)[C@H](CO)NC(=O)[C@@H](NC(=O)[C@](C)(Cc1ccccc1F)NC(=O)[C@@H](NC(=O)CNC(=O)[C@H](CCC(=O)O)NC(=O)C(C)(C)NC(=O)[C@@H](N)Cc1ccc(O)cc1)[C@@H](C)O)[C@@H](C)O)[C@@H](C)CC)[C@@H](C)CC)C(=O)N[C@@H](CCC(=O)O)C(=O)NCC(=O)NCC(N)=O [Example 104] (H-Y[Aib]EGT[αMePhe(2-F)]TSDYSI[αMeL]LDEK([AEEA-AEEA-γGlu-C18 diacid])AQ[Aib]EFIEYLIEGG-NH2)	94.0	94.1	89.0	82.7	70.8	71.3	–
80.1	0.0469	0.0344	0.0423	1.31	CC[C@H](C)[C@H](NC(=O)[C@H](CC(C)C)NC(=O)[C@H](Cc1ccc(O)cc1)NC(=O)[C@H](CCC(=O)O)NC(=O)[C@@H](NC(=O)[C@H](Cc1ccccc1)NC(=O)[C@H](CCC(=O)O)NC(=O)C(C)(C)NC(=O)[C@H](CCC(N)=O)NC(=O)[C@H](C)NC(=O)[C@H](CCCCNC(=O)COCCOCCNC(=O)COCCOCCNC(=O)CC[C@H](NC(=O)CCCCCCCCCCCCCCCCCCC(=O)O)C(=O)O)NC(=O)[C@H](CCCCN)NC(=O)[C@H](CC(=O)O)NC(=O)[C@H](CC(C)C)NC(=O)[C@](C)(CC(C)C)NC(=O)[C@@H](NC(=O)[C@H](CO)NC(=O)[C@H](Cc1ccc(O)cc1)NC(=O)[C@H](CC(=O)O)NC(=O)[C@H](CO)NC(=O)[C@@H](NC(=O)[C@](C)(Cc1ccccc1)NC(=O)[C@@H](NC(=O)CNC(=O)[C@H](CCC(=O)O)NC(=O)C(C)(C)NC(=O)[C@@H](N)Cc1ccc(O)cc1)[C@@H](C)O)[C@@H](C)O)[C@@H](C)CC)[C@@H](C)CC)C(=O)N[C@@H](CCC(=O)O)C(=O)NCC(=O)NCC(=O)N1CCC[C@H]1C(=O)N[C@@H](CO)C(=O)N[C@@H](CO)C(=O)NCC(N)=O [Example 123] (H-Y[Aib]EGT[αMeF]TSDYSI[αMeL]LDKK([AEEA-AEEA-γGlu-C20 diacid])AQ[Aib]EFIEYLIEGGPSSG-NH2)	94.7	90.5	86.5	81.3	75.1	68.6	–
